Target: T1, Siglec-7 (Homo sapiens, UniProt Q9Y286)
T1 construct: gene SIGLEC7; recombinant Siglec-7-Fc soluble protein
Experiment: concentration-independent native mass spectrometry (COIN-CaR-ESI-MS)
Format: binding

T1 sequence (Q9Y286 19-353 limits assumed): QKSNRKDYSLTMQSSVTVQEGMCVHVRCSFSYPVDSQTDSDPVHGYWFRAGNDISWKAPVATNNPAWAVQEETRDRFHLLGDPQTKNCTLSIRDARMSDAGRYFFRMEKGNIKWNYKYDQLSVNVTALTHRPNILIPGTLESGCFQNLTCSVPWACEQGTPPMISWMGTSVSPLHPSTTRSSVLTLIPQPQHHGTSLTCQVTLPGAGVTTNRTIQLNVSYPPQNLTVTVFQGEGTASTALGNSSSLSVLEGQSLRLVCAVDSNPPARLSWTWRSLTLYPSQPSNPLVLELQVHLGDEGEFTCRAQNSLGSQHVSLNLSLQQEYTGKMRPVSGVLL

Structure (SMILES)	Kd
CC(=O)N[C@H]1[C@@H](OCCNC(=O)OCc2ccccc2)O[C@H](CO)[C@H](O)[C@@H]1O[C@@H]1O[C@H](CO)[C@H](O)[C@H](O[C@]2(C(=O)O)C[C@H](N=[N+]=[N-])[C@@H](NC(C)=O)[C@H]([C@H](O)[C@H](O)CO)O2)[C@H]1O [compound 13, 2-(N-benzyloxycarbonylamino)ethyl 5-acetamido-4-azido-3,4,5 trideoxy-D-glycero-α-D-galacto-nonulopyranosyl-(2–3)-[β-D-galactopyranosyl]-(1–3)-2 acetamido-2-deoxy-α-D-galactopyranoside]	115 ± 44 µM
CC(=O)N[C@H]1[C@@H](OCCNC(=O)OCc2ccccc2)O[C@H](CO)[C@H](O)[C@@H]1O[C@@H]1O[C@H](CO)[C@H](O)[C@H](O[C@]2(C(=O)O)C[C@H](O)[C@@H](NC(C)=O)[C@H]([C@H](O)[C@H](O)CO)O2)[C@H]1O [compound 14, 2-(N-benzyloxycarbonylamino)ethyl 5 acetamido-3,5-dideoxy-D-glycero-α-D-galacto-nonulopyranosyl-(2–3)-[(β-D-galactopyranosyl)]-(1–3)-2-acetamido-2-deoxy-α-D-galactopyranoside]	88 ± 31 µM

Reference: article PMC12038855, “Synthesis of 4-azido sialic acid for testing against Siglec-7 and in metabolic oligosaccharide engineering” (RSC Chemical Biology, 2025)
